Measured values as given in article PMC10147046, “Assessment of Various Food Proteins as Structural Materials for Delivery of Hydrophobic Polyphenols Using a Novel Co-Precipitation Method” (Molecules, 2023).
In brackets after ≈: the same amount, converted by molar mass.

How the values were obtained:
[1] = reference compounds of Table 1; one cell merged over all four solubility columns; no source or measurement printed; cited from earlier work
[2] = Dispersibility in water: particle size distribution over time (Malvern Mastersizer 2000); format: physicochemical; settings: for Size of additional significant particle population after treatment: distribution at least bi-modal; for Dispersibility of untreated polyphenol: untreated powder, phosphate buffer pH 7.0, over 60 min; for Particle size after treatment in the absence of trehalose: polyphenol precipitate without protein and without trehalose; for Particle size reached over time, WPI co-precipitates: over 60 min
Experimental: The particle size distribution of untreated (control) polyphenols vs. the polyphenols co-precipitated with NaCas, SPI, and WPI after dispersion in phosphate buffer (pH 7.0) is presented in Figure 4. As stated in Section 3.6, in the case of the current research, we measured dispersibility based on the decrease in the size of particles dispersed in the aqueous medium over time.
The dispersibility of the lyophilized powders and the untreated samples was measured according to the method from Ji et al.. For this purpose, we used a Malvern Mastersizer 2000 (Malvern Instruments Ltd., Worcestershire, UK), which was equipped with a 4 mW He–Ne laser operating apparatus. To start with, about 30 mg of each powder was added to the dispersion unit containing phosphate buffer (10 mM NaH2PO4, pH 7.0), and this mixture was stirred (2000 rpm) for 60 min. The particle size distribution obscuration values of each sample were read at 2 min intervals and a wavelength of 632.8 nm. To avoid artifacts (large lumps) from the initial dispersion, the Time 0 min measurement was removed, and the data from 2 to 60 min were collected. A separate normalization was applied to the obscuration indices across the dispersion period for each sample by dividing each index by the maximum index. Finally, the volume distribution data were multiplied by the normalized obscuration index at each time point.

[3] = source not given; cited from earlier work
[4] = Solubility of the powders in water (phosphate buffer), HPLC quantification; format: physicochemical; settings: for solubility at 24 h: aqueous buffer, thermodynamic from solid; for Increase in solubility of co-precipitate compared to intrinsic (untreated) solubility: polyphenol co-precipitated with protein and trehalose vs untreated, phosphate buffer pH 7.0
Experimental: To measure the amount of the polyphenol entrapped inside the NaCas, SPI, and WPI precipitates (entrapment efficiency), the concentration of each polyphenol in the supernatants was determined by high-performance liquid chromatography (HPLC) following different methods (depending on the polyphenol). The HPLC instrument was equipped with a UV/visible diode array detector (Agilent Technologies, 1200 Series, Santa Clara, CA, USA). The column was a reverse-phase PrevailTM C18 with dimensions of 4.6 cm × 150 mm and 5 µm particle size (Grace Alltech, Columbia, MD, USA). The composition and conditions of the mobile phase varied based on the method used for the quantification of each polyphenol. […] The sample injection volume for all cases was 20 µL. Different polyphenols were detected at different wavelengths and different retention times; e.g., naringenin and rutin were detected at 10.15 and 4.8 min, respectively. For the calibration of the HPLC column and quantification of each polyphenol in the samples, standard solutions of various concentrations of pure polyphenols (94 to 98%) in the mobile phase were used. […] Thermo Scientific, Waltham, MA, USA) before injecting them into the HPLC column. […] The dispersibility of the lyophilized powders and the untreated samples was measured according to the method from Ji et al.. For this purpose, we used a Malvern Mastersizer 2000 (Malvern Instruments Ltd., Worcestershire, UK), which was equipped with a 4 mW He–Ne laser operating apparatus. […] To avoid artifacts (large lumps) from the initial dispersion, the Time 0 min measurement was removed, and the data from 2 to 60 min were collected. A separate normalization was applied to the obscuration indices across the dispersion period for each sample by dividing each index by the maximum index. Finally, the volume distribution data were multiplied by the normalized obscuration index at each time point.

[5] = set-up: method as in PMID 30724197; settings: cited from earlier work
[6] = set-up: method as in PMID 35056844; settings: rutin dissolved in solution maintained at pH 11.0 for 30 min; cited from earlier work
[7] = polyphenol precipitate without protein, absence of trehalose
[8] = untreated (commercial) polyphenol, phosphate buffer pH 7.0, 25 °C

Row | Size of additional significant particle population after treatment [2, 7] [µm] | Molecule | Dispersibility of untreated polyphenol [2] | Solubility in ethanol [3] | solubility at 24 h [4, 8] [µg/mL] | other results
1 | – | Oc1ccc(-c2ccc(O)cc2O)c(O)c1 [[1,1′-Biphenyl]-2,2′,4,4′-tetrol] | – | – | – | Solubility (reference compounds, in words) [1]: low?
2 | ~0.1 | Oc1cc(O)c2c(c1)O[C@H](c1ccc(O)c(O)c1)[C@@H](O)C2 [Catechin, (+)-catechin] | showed some dispersibility | ~100000 µg/mL (≈ 345000 µM) | 1.5 (≈ 5.17 µM) | Increase in solubility of co-precipitate compared to intrinsic (untreated) solubility [4]: ~10 fold
3 | – | COc1ccc([C@@H]2CC(=O)c3c(O)cc(O[C@@H]4O[C@H](CO[C@@H]5O[C@@H](C)[C@H](O)[C@@H](O)[C@H]5O)[C@@H](O)[C@H](O)[C@H]4O)cc3O2)cc1O [Hesperidin] | None of the untreated forms of rutin, naringenin, hesperidin, and curcumin (Figure 4) showed any significant dispersibility over 60 min | ~1000 µg/mL (≈ 1640 µM) | 2 (≈ 3.28 µM) | Particle size after treatment in the absence of trehalose [2]: 30 μm; Particle size, untreated polyphenol ([2]; untreated powder dispersed in phosphate buffer): ~ 60 μm
4 | – | O=c1c(-c2ccc(O)cc2)coc2cc(O)ccc12 [daidzein] | – | – | – | Enhancement of daidzein solubility ([5]; WPI nanoparticles formed in the presence of daidzein): at least 2 fold; Stability ([5]; WPI-daidzein nanoparticles, 4 °C): stable at 4 °C for at least two months
5 | ~0.1 | O=C1C[C@@H](c2ccc(O)cc2)Oc2cc(O)cc(O)c21 [Naringenin, (S)-naringenin] | None of the untreated forms of rutin, naringenin, hesperidin, and curcumin (Figure 4) showed any significant dispersibility over 60 min | ~1000 µg/mL (≈ 3670 µM) | 2 (≈ 7.35 µM) | Particle size reached over time, WPI co-precipitates [2]: less than 1 μm; Particle size after treatment in the absence of trehalose [2]: ~ 6 μm
6 | – | Curcumin | None of the untreated forms of rutin, naringenin, hesperidin, and curcumin (Figure 4) showed any significant dispersibility over 60 min | ~10000 µg/mL | – | Size of minor particle population after treatment [2, 7]: ~ 160 μm; Increase in solubility of co-precipitate compared to intrinsic (untreated) solubility [4]: ~10 fold; Solubility (Untreated) [4, 8]: 8 µg/mL

Row | Molecule | Size of additional significant particle population after treatment [2, 7] [µm] | Dispersibility of untreated polyphenol [2] | Solubility in ethanol [3] | solubility at 24 h [4, 8] [µg/mL] | other results
7 | C[C@@H]1O[C@@H](OC[C@H]2O[C@@H](Oc3c(-c4ccc(O)c(O)c4)oc4cc(O)cc(O)c4c3=O)[C@H](O)[C@@H](O)[C@@H]2O)[C@H](O)[C@H](O)[C@H]1O [Rutin] | ~0.1 | None of the untreated forms of rutin, naringenin, hesperidin, and curcumin (Figure 4) showed any significant dispersibility over 60 min | about 4 mg/mL | 110 (≈ 180 µM) | Degradation [6]: approximately 10%; Particle size reached over time, WPI co-precipitates [2]: less than 1 μm; Size of smaller particles favoured over time, NaCas co-precipitate ([2]; co-precipitate with NaCas, redistribution of particle size over time): 0.1 μm; Effect of treatment (no protein) on dispersibility ([2]; treated polyphenol precipitates with or without trehalose): Treatment improved the dispersibility only of rutin
